What was measured:
CB2 receptor = target: T1, CB2 receptor (Homo sapiens, UniProt P34972); assay: CB2 binding procedure: displacement of [3H]CP-55,940 from membranes of transfected CHO cells; settings: for CB1/CB2 (ratio of Ki): CB1 Ki divided by CB2 Ki; for Ki: means ± SEM, [3H]CP-55,940, transfected CHO cell membranes, read-out: Ki (nM) CB2; for fold decrease in CB2 affinity: relative to the comparator analog
T1 construct: expressed in transfected cells; host or cells: CHO cells, G418-selected transfected line
T1 sequence (P34972 whole entry): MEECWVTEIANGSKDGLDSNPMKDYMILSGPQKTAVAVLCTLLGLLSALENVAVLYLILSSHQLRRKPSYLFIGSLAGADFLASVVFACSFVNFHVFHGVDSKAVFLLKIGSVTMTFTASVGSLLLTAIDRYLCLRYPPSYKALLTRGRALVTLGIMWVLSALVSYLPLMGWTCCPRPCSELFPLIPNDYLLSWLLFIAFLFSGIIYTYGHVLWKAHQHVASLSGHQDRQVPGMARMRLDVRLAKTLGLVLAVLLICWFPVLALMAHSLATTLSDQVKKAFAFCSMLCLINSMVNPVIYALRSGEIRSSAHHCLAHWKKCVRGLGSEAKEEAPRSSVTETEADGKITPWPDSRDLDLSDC
Method: Membranes for CB2 binding were obtained from CHO cells. The transfected cell line was maintained in Dublecco's Modified Eagle Medium (Gibco BRL, Grand Island, N.Y.) with 10% fetal clone II (HyClone Laboratories, Inc., Logan, Utah) plus 0.3 to 0.5 mg/ml G418 (to maintain selective pressure) under 5% CO2 at 37% C. Cells were harvested with 1 mM EDTA in phosphate-buffered saline and were centrifuged at 1000×g for 5 min at 4% C. The supernatant was saved and the P1 pellet was resuspended in centrifugation buffer. Homogenization and centrifugation were repeated twice and the combined supernatant fractions were centrifuged at 40,000×g for 30 min at 4% C. The P2 pellet was resuspended in centrifugation buffer 2 (Tris HCl, 50 mM; EDTA, 1 mM; and MgCl2, 3 mM, pH 7.4) to a protein concentration of approximately 2 mg/ml. Protein concentrations were determined by the method of Bradford (1976) using Bio-Rad Protein Assay (Bio-Rad, Richmond, Calif.) and BSA standards (fatty acid free, Sigma Chemical Co., St. Louis, Mo.). The membrane preparation was divided into amounts convenient for binding assays and frozen rapidly in dry ice and stored at −80% C.
Binding was initiated by the addition of 50 μg of quickly thawed P2 membranes to test tubes containing [^3H]CP-55,940 (final reaction concentration 0.5 nM), an appropriate concentration of unlabeled CP-55,940 or test drug, and sufficient quantity of assay buffer (50 mM Tris-HCl, 1 mM EDTA, 3 mM MgCl2, 5 mg/ml bovine serum albumin, pH 7.4) to bring the total incubation volume to 0.5 ml. Concentration of [^3H]CP-55,940 in saturation studies ranged from 50 to 10,000 pM. Nonspecific binding was determined by the addition of 1 μM unlabeled CP-55,940. CP-55,940 and all cannabinoid analogs were prepared by suspension in assay buffer from a 1 mg/ml ethanolic stock without evaporation of the ethanol (final concentration of no more than 0.4%). In competition studies, analog concentrations ranged from 0.1 nM to 10 μM. After incubation at 30% C for 1 hr, binding was terminated by the addition of 2 ml of ice-cold wash buffer (50 mM Tris-HCl and 1 mg/ml BSA) and vacuum filtration through pre-treated filters in a 12-well sampling manifold (Millipore, Bedford, Mass.). Reaction vessels were washed once with 2 ml of ice-cold wash buffer. Filters were placed into 7-ml plastic scintillation vials (RPI Corp., Mount Prospect, Ill.) with 4 ml of Budget-Solve (RPI Corp.). After shaking for 30 min, the radioactivity present was determined by liquid scintillation spectrometry. Three reaction vessels were used for each drug concentration in each assay. The results represent the combined data of three independent experiments. All assays were performed in siliconized test tubes, which were prepared by air drying (12 hr) inverted borosilicate tubes after two rinses with a 0.1% solution of AquaSil (Pierce, Rockford, Ill.). The GF/C glass-fiber filters (2.4 cm, Baxter, McGaw Park, Ill.) were pre-treated in a 0.1% solution of pH 7.4 polyethylenimine (Sigma Chemical Co.) for at least 6 hr.
In addition, multiple linear regression was used to calculate the overall degree of relationship between CB1 binding affinity and potency in the mouse measures for all active cannabinoids. […] Ki values for CB1 and CB2 binding were obtained from Scatchard displacement analysis as determined via EBDA program of the KELL software package (Biosoft, Milltown, N.J.).

Male ICR mice [1] = assay: Suppression of spontaneous activity (SA) in mice; type: in vivo, mouse; settings: Mus musculus, iv, mice, i.v.
Method: (§1) Male ICR mice (25–32 g), obtained from Harlan (Dublin, Va.), were housed in groups of five. All animals were kept in a temperature-controlled (20–22° C.) environment with a 12-hour light-dark cycle (lights on at 7 a.m.). Separate mice were used for testing each drug dose in the in vivo behavioral procedures. Brain tissue for binding studies was obtained from male Sprague-Dawley rats (150–200 g) purchased from Harlan Laboratories (Dublin, Va.).
(§2) Measurement of spontaneous activity in mice occurred in standard activity chambers interfaced with a Digiscan Animal Activity Monitor (Omnitech Electronics, Inc., Columbus, Ohio). A standard tail-flick apparatus and a digital thermometer (Fisher Scientific, Pittsburgh, Pa.) were used to measure antinociception and rectal temperature, respectively
(§3) Resorcinols were synthesized in our labs (Organix, Inc., Woburn, Mass.) according to the procedure specified below and were suspended in a vehicle of absolute ethanol, Emulphor-620 (Rhone-Poulenc, Inc., Princeton, N.J.), and saline in a ratio of 1:1:18. Drugs were administered to the mice intravenously (i.v.) in the tail vein at a volume of 0.1 ml/10 g.
(§4) Prior to testing in the behavioral procedures, mice were acclimated to the experimental setting (ambient temperature 22–24° C.) overnight. Pre-injection control values were determined for rectal temperature and tail-flick latency (in sec). […] Tail-flick latency was measured at 20 min post-injection. Maximum latency of 10 sec was used. Antinociception was calculated as percent of maximum possible effect {% MPE=[(test−control latency)/(10-control)]×100}. Control latencies typically ranged from 1.5 to 4.0 sec. At 30 min post-injection, rectal temperature was measured This value was expressed as the difference between control temperature (before injection) and temperatures following drug administration (° C.). Different mice (n=5–6 per dose) were tested for each dose of each compound. Each mouse was tested in each of the 3 procedures.
(§5) Based on data obtained from numerous previous studies with cannabinoids, maximal cannabinoid effects in each procedure were estimated as follows: 90% inhibition of spontaneous activity, 100% MPE in the tail flick procedure, and −6° C. change in rectal temperature. ED50's were defined as the dose at which half maximal effect occurred. For drugs that produced one or more cannabinoid effect, ED50's were calculated separately using least-squares linear regression on the linear part of the dose-effect curve for each measure in the mouse tetrad, plotted against log10 transformation of the dose. For the purposes of potency comparison, potencies were expressed as μmol/kg.

Male ICR mice [2] = assay: Tail-flick antinociception (TF, % MPE) in mice; type: in vivo, mouse; settings: Mus musculus, iv, mice, i.v.
Method: as §1, §2, §3, §4, §5

[3] = 95% confidence limits in parentheses, read-out: ED50 SA (suppression of spontaneous activity)
[4] = 95% confidence limits in parentheses, read-out: ED50 TF (antinociceptive effect in tail flick assay)

SMILES | CB1/CB2 (ratio of Ki) (CB2 receptor) | Ki (CB2 receptor) [nM] | fold decrease in CB2 affinity (CB2 receptor) | ED50 (Male ICR mice [1]; Table 6, read-out: S.A ED50) [mg/kg] | ED50 (Male ICR mice [1]; [3]) [µmol/kg] | ED50 (Male ICR mice [2]; Table 6, read-out: T.F. ED50) [mg/kg] | ED50 (Male ICR mice [2]; [4]) [µmol/kg]
CCCCCCC(C)(C)c1cc(O)c(C2CCC(C)CC2)c(O)c1 (centres unmarked) [O-1659, 2-(4-Methylcyclohexyl)-5-(1′,1′-dimethylheptyl)-resorcinol] | 9 | 5 ± 0.9 | about 5 fold | 1.65 | 4.8 | 1.35 | 3.9
CCCCCCC(C)(C)c1ccc(-c2cc(C)ccc2C(C)C)c(O)c1 [O-1376, 3-1′,1′-Dimethylheptyl-6-(2-isopropyl-5-methylphenyl)phenol] | 11 | 3 ± 0.4 |  | 2.94 | 8.5 | 1.97 | 5.7
CCCCCCC(C)(C)c1cc(O)c(C2C3CC4CC(C3)CC2C4)c(O)c1 (centres unmarked) [O-1660, 2-(2-Adamantyl)-5-(1′,1′-di-methylheptyl)-resorcinol] | 2 | 3 ± 0.8 |  | 1.27 | 3.5 | 0.911 | 2.4
CCCC(C)(C)c1cc(O)c(C2CCCC(C)C2)c(O)c1 (centres unmarked) [O-1890, 2-(3-Methylcyclohexyl)-5-(1′,1′-dimethylbutyl)-resorcinol] | 7 | 13 ± 1 |  | 20 | 69 | 14 | 48
CCCCCCC(C)(C)c1cc(O)c([C@H]2CCCC(C)C2)c(O)c1 (single isomer, unassigned) [O-1826] | 50 | 0.8 ± 0.05 |  | 0.915 | 2.7 | 0.821 | 2.4
CCCCCCC(C)(C)c1cc(O)c(C2CCSCC2)c(O)c1 [O-1425] | 13 | 12 ± 2 | 8 fold | 5.82 | 17 | 5.05 | 15
CCCCCCC(C)(C)c1cc(O)c(C2CCSC2)c(O)c1 (centres unmarked) [O-1661, 2-(Tetrahydrothiophen-3-yl)-5-(1′,1′-dimethylheptyl)-re-sorcinol] | 5 | 28 ± 12 |  | 2.65 | 24 | 4.39 | 14
CCCCCCC(C)(C)c1cc(O)c(C2CCCCC2)c(O)c1 [O-1422, Cyclohexyl-5-(1′,1′-dimethylheptyl)-resorcinol] | 7 | 1.5 ± 0.1 |  | 0.379 | 0.1 | 0.241 | 0.6
CCCCCCC(C)(C)c1cc(O)c(C2CCCCC2C)c(O)c1 (centres unmarked) [O-1658, 2-(2-Methylcyclohexyl)-5-(1′,1′-dimethylheptyl)-resorcinol] | 16 | 1 ± 0.3 |  | 0.06 | 0.2 | 0.09 | 0.3
CCCCCCC(C)(C)c1cc(O)c(C2=CCCCC2)c(O)c1 [O-1423] | 3 | 28 ± 5 |  | 3.92 | 12 | 2.86 | 9
CCCCCCC(C)(C)c1cc(O)c(C2CCCC(C)C2)c(O)c1 (mixture of isomers) [O-1657, 2-(3-Methylcyclohexyl)-5-(1′,1′-dimethylheptyl)-resorcinol] | 17 | 0.8 ± 0.04 |  | 0.13 | 0.3 | 0.23 | 0.6

— patent publication US7179800B2 (priority 2002, dated 2007)
